This data set concerns Artemia salina. Nature of the data set: Toxicity to Artemia salina after 24 hrs. It is filed as organism-based. As to conditions: in vivo.

In general, LC50 refers to the concentration that kills 50% of the test population.

Take `C[C@@H]1C[C@@H]2OC(=O)C3=C2[C@H](CCC3)[C@@]12C[C@@H](c1ccoc1)OC2=O` [TEUCVIN]: the LC50 is reported as more than 500 ppm.
The same measure for `CC(=O)OC[C@@]12[C@@H](OC(C)=O)C[C@@H](C)[C@]3(C[C@H](c4ccoc4)OC3=O)[C@H]1CCC[C@]21CO1` [MONTANIN C]: 66.4 ppm; for `C[C@@H]1C[C@@H](O)[C@@]23COC(=O)[C@@H]2CCC[C@@H]3[C@@]12C[C@@H](c1ccoc1)OC2=O`: more than 500 ppm.
